Reference: patent publication US8232414B2, “Polymorphic form of rotigotine and process for production” (UCB Pharma GmbH, priority 2007, dated 2012)

What was measured:
[1] = Solubility in EtOH at room temperature; format: physicochemical
[2] = Thermodynamic stability from DSC (melting point, enthalpy of fusion; Burger-Ramberger rules); format: physicochemical; details: heating rate 10° C./min, 30° C. to 140° C., Burger-Ramberger rules applied
From the text: Polymorph form (II) of rotigotine can be further characterized and distinguished from form (I) by differential scanning calorimetry (DSC). A DSC thermogram of form (II) is provided in FIG. 5, and was obtained using DSC techniques known to those of skill in the art. One of skill in the art would readily be able to determine the conditions necessary to obtain a DSC thermogram of form (II). A variety of differential scanning calorimeters are available to those of skill in the art and include the Differential Scanning Calorimeter of Mettler Toledo (DSC822e) using temperatures of about 25° C. to about 250° C., in particular about 30° C. to about 140° C. and temperature increases at various rates including 1° C./min, 10° C./min, 20° C./min, among other instruments and conditions. One skilled in the art would recognize that the peak positions in the DSC thermogram can vary depending upon kinetic factors such as, for example, heating rate and particle size. Thermal behavior investigations of rotigotine of polymorphic form (I) (batch 1608726) and of polymorphic form (II) (batch 7769396) were performed on a Mettler Toledo DSC system and on a TA instrument (Q-1000). The analyses were carried out with a heating rate of 10° C./min in pierced aluminum crucibles in a temperature range from 30° C. to 140° C.

| solubility in EtOH [1] | solubility in EtOH relative to polymorphic form (I) ([1]; form (II) versus form (I)) | Structure (SMILES) | thermodynamic stability relative to form (I) [2] | thermodynamic stability relative to form (I) ([2]; listed as form (II)) |
| --- | --- | --- | --- | --- |
| about 500 mg/ml |  | CCCN(CCc1cccs1)[C@H]1CCc2c(O)cccc2C1 [polymorphic form (I), (−)-5,6,7,8-tetrahydro-6-[propyl-[2-(2-thienyl)ethyl]amino]-1-naphthalenol, reference compound] |  |  |
| 60 to 100 mg/mL | at least five times lower | CCCN(CCc1cccs1)[C@H]1CCc2c(O)cccc2C1 [polymorphic form (II), (−)-5,6,7,8-tetrahydro-6-[propyl-[2-(2-thienyl)ethyl]amino]-1-naphthalenol] | thermodynamically more stable than polymorphic form (I) at all considered temperatures | thermodynamically more stable than form (I) at any temperature considered |
